Measurements from ChEMBL document CHEMBL3745628, “ent-Abietane-type diterpenoids from the roots of Euphorbia ebracteolata with their inhibitory activities on LPS-induced NO production in RAW 264.7 macrophages” (Bioorg Med Chem Lett, 2016).

Tests used:
[1] = test system: RAW264.7; assay: Cytotoxicity against mouse RAW264.7 cells assessed as reduction in cell viability at IC50 by MTT assay; type: cell-based
[2] = test system: RAW264.7; assay: Antiinflammatory activity in mouse RAW264.7 cells assessed as inhibition of LPS-induced NO production after 24 hrs by Griess method; type: functional, cell-based; settings: RAW264.7, 24 h

Structure (SMILES) | Activity [1] | IC50 [2] [µM]
CO[C@@]12OC(=O)C(C)=C1C=C1CC[C@@H]3C(C)(C)CCC[C@@]3(C)[C@@H]1[C@H]2O | Non-toxic | 1.97
CC1=C2[C@@H](O)[C@@]3(O)CC[C@@H]4C(C)(C)CCC[C@@]4(C)[C@@H]3[C@@H](O)[C@H]2OC1=O | Non-toxic | 4.44
CC1=C2C(=O)C3=C([C@@H](O)[C@H]2OC1=O)[C@]1(C)CCCC(C)(C)[C@H]1CC3 | Non-toxic | 0.69
CC1=C2[C@@H](O)C3=CC[C@@H]4C(C)(C)CCC[C@@]4(C)[C@@H]3[C@@H](O)[C@H]2OC1=O | Non-toxic | 14.2
CC1=C2C(=C[C@H]3[C@]4(C)CCCC(C)(C)[C@H]4CC[C@]34O[C@H]24)OC1=O | Non-toxic | 25
CC1=C2[C@@H](O)C3=C([C@@H](O)[C@H]2OC1=O)[C@]1(C)CCCC(C)(C)[C@H]1CC3 | Non-toxic | 33.1
CC1=C2[C@H]3O[C@]34CC[C@@H]3C(C)(C)CCC[C@@]3(C)[C@@H]4[C@@H](O)[C@H]2OC1=O | Non-toxic | 6.98
CC1=C2C=C3CC[C@@H]4C(C)(C)CCC[C@@]4(C)[C@@H]3[C@@H](O)[C@H]2OC1=O | Non-toxic | 5.94
CC1=C2[C@H](OC1=O)[C@H](O)[C@H]1[C@]3(C)CCCC(C)(C)[C@H]3CC[C@@]1(O)[C@H]2O | Non-toxic | 15.5
